{"source": "PubChem BioAssay AID1259407", "about": "(Chemical Carcinogenesis Research Information System (CCRIS), 2018)", "test_system": "CCRIS mutagenicity, Ames/micronucleus/aberration tests", "assay": "CCRIS mutagenicity studies", "key": {"[1]": {"conditions": "Test System: AMES SALMONELLA TYPHIMURIUM, Strain/Indicator: TA98, Metabolic Activation: NONE, Method: PREINCUBATION"}, "[2]": {"conditions": "Test System: AMES SALMONELLA TYPHIMURIUM, Strain/Indicator: TA100, Metabolic Activation: NONE, Method: PREINCUBATION"}, "[3]": {"conditions": "Test System: AMES SALMONELLA TYPHIMURIUM, Strain/Indicator: TA100, Metabolic Activation: NONE, Method: STANDARD PLATE"}, "[4]": {"conditions": "Test System: AMES SALMONELLA TYPHIMURIUM, Strain/Indicator: TA100, Metabolic Activation: RAT, LIVER, S-9, AROCLOR 1254, Method: STANDARD PLATE"}, "[5]": {"conditions": "Test System: AMES SALMONELLA TYPHIMURIUM, Strain/Indicator: TA1535, Metabolic Activation: NONE, Method: PREINCUBATION"}}, "note": "Activity calls are given as the source filed them. The rule behind the calls is not given here."}
{"smiles": "CN", "values": [{"measurement": "mutagenic call", "setting": "Test System: AMES SALMONELLA TYPHIMURIUM, Strain/Indicator: TA98, Metabolic Activation: NONE, Method: GAS EXPOSURE", "value": "inactive; negative"}, {"measurement": "mutagenic call", "setting": "[1]", "value": "inactive; negative"}, {"measurement": "mutagenic call", "setting": "Test System: AMES SALMONELLA TYPHIMURIUM, Strain/Indicator: TA98, Metabolic Activation: RAT, LIVER, S-9, AROCLOR 1254 (5,15 OR 30%), Method: PREINCUBATION", "value": "inactive; negative"}, {"measurement": "mutagenic call", "setting": "Test System: AMES SALMONELLA TYPHIMURIUM, Strain/Indicator: TA98, Metabolic Activation: RAT, LIVER, S-9, SODIUM PHENOBARBITAL AND 5,6-BENZOFLAVONE, Method: GAS EXPOSURE", "value": "inactive; negative"}, {"measurement": "mutagenic call", "setting": "Test System: AMES SALMONELLA TYPHIMURIUM, Strain/Indicator: TA100, Metabolic Activation: NONE, Method: GAS EXPOSURE", "value": "inactive; negative"}, {"measurement": "mutagenic call", "setting": "[2]", "value": "inactive; negative"}, {"measurement": "mutagenic call", "setting": "Test System: AMES SALMONELLA TYPHIMURIUM, Strain/Indicator: TA100, Metabolic Activation: RAT, LIVER, S-9, AROCLOR 1254 (5,15 OR 30%), Method: PREINCUBATION", "value": "inactive; negative"}, {"measurement": "mutagenic call", "setting": "Test System: AMES SALMONELLA TYPHIMURIUM, Strain/Indicator: TA100, Metabolic Activation: RAT, LIVER, S-9, SODIUM PHENOBARBITAL AND 5,6-BENZOFLAVONE, Method: GAS EXPOSURE", "value": "inactive; negative"}, {"measurement": "mutagenic call", "setting": "Test System: AMES SALMONELLA TYPHIMURIUM, Strain/Indicator: TA104, Metabolic Activation: NONE, Method: PREINCUBATION", "value": "inactive; negative"}, {"measurement": "mutagenic call", "setting": "Test System: AMES SALMONELLA TYPHIMURIUM, Strain/Indicator: TA104, Metabolic Activation: RAT, LIVER, S-9, AROCLOR 1254 (5,15 OR 30%), Method: PREINCUBATION", "value": "inactive; negative"}, {"measurement": "mutagenic call", "setting": "Test System: AMES SALMONELLA TYPHIMURIUM, Strain/Indicator: TA1535, Metabolic Activation: NONE, Method: GAS EXPOSURE", "value": "inactive; negative"}, {"measurement": "mutagenic call", "setting": "Test System: AMES SALMONELLA TYPHIMURIUM, Strain/Indicator: TA1535, Metabolic Activation: RAT, LIVER, S-9, SODIUM PHENOBARBITAL AND 5,6-BENZOFLAVONE, Method: GAS EXPOSURE", "value": "inactive; negative"}, {"measurement": "mutagenic call", "setting": "Test System: AMES SALMONELLA TYPHIMURIUM, Strain/Indicator: TA1537, Metabolic Activation: NONE, Method: GAS EXPOSURE", "value": "inactive; negative"}, {"measurement": "mutagenic call", "setting": "Test System: AMES SALMONELLA TYPHIMURIUM, Strain/Indicator: TA1537, Metabolic Activation: RAT, LIVER, S-9, SODIUM PHENOBARBITAL AND 5,6-BENZOFLAVONE, Method: GAS EXPOSURE", "value": "inactive; negative"}, {"measurement": "mutagenic call", "setting": "Test System: E. COLI, Strain/Indicator: WP2UVRA, Metabolic Activation: NONE, Method: GAS EXPOSURE", "value": "inactive; negative"}, {"measurement": "mutagenic call", "setting": "Test System: E. COLI, Strain/Indicator: WP2UVRA, Metabolic Activation: RAT, LIVER, S-9, SODIUM PHENOBARBITAL AND 5,6-BENZOFLAVONE, Method: GAS EXPOSURE", "value": "inactive; negative"}, {"measurement": "mutagenic call", "setting": "Test System: MOUSE LYMPHOMA, Strain/Indicator: L5178Y (TK+/TK-), Metabolic Activation: NONE, Method: SUSPENSION/PLATE", "value": "active; positive"}]}
{"smiles": "CC1CN(/N=C/c2ccc([N+](=O)[O-])o2)C(=O)N1", "note": "(stereo not drawn)", "values": [{"measurement": "mutagenic call", "setting": "Test System: AMES SALMONELLA TYPHIMURIUM, Strain/Indicator: TA100, Metabolic Activation: RAT, LIVER, S-9, KC500 OR PHENOBARBITAL, Method: LIQUID SUSPENSION", "value": "active; positive"}]}
{"smiles": "CN(C)S(=O)(=O)CCNC(=O)N(CCCl)N=O", "values": [{"measurement": "mutagenic call", "setting": "[3]", "value": "active; positive"}, {"measurement": "mutagenic call", "setting": "[4]", "value": "active; positive"}]}
{"smiles": "O=[N+]([O-])O.O=[N+]([O-])O.[O]=[U]=[O]", "values": [{"measurement": "mutagenic call", "setting": "End Point: In vitro micronucleus, Test System: Rat kidney (NRK-52E) cells, Metabolic Activation: None", "value": "inactive; negative; depleted uranium tested"}]}
{"smiles": "CC1(c2ccc(-c3ccccc3)cc2)CO1", "note": "(stereo not drawn)", "values": [{"measurement": "mutagenic call", "setting": "[2]", "value": "active; positive"}]}
{"smiles": "CC(C)COC(=O)c1ccccc1N", "values": [{"measurement": "mutagenic call", "setting": "Test System: AMES SALMONELLA TYPHIMURIUM, Strain/Indicator: TA98, Metabolic Activation: HAMSTER, LIVER, S-9, AROCLOR 1254 (10%), Method: PREINCUBATION", "value": "inactive; negative"}, {"measurement": "mutagenic call", "setting": "[1]", "value": "inactive; negative"}, {"measurement": "mutagenic call", "setting": "Test System: AMES SALMONELLA TYPHIMURIUM, Strain/Indicator: TA98, Metabolic Activation: RAT, LIVER, S-9, AROCLOR 1254 (10%), Method: PREINCUBATION", "value": "inactive; negative"}, {"measurement": "mutagenic call", "setting": "Test System: AMES SALMONELLA TYPHIMURIUM, Strain/Indicator: TA100, Metabolic Activation: HAMSTER, LIVER, S-9, AROCLOR 1254 (10%), Method: PREINCUBATION", "value": "inactive; negative"}, {"measurement": "mutagenic call", "setting": "[2]", "value": "inactive; negative"}, {"measurement": "mutagenic call", "setting": "Test System: AMES SALMONELLA TYPHIMURIUM, Strain/Indicator: TA100, Metabolic Activation: RAT, LIVER, S-9, AROCLOR 1254 (10%), Method: PREINCUBATION", "value": "inactive; negative"}, {"measurement": "mutagenic call", "setting": "Test System: AMES SALMONELLA TYPHIMURIUM, Strain/Indicator: TA1535, Metabolic Activation: HAMSTER, LIVER, S-9, AROCLOR 1254 (10%), Method: PREINCUBATION", "value": "inactive; negative"}, {"measurement": "mutagenic call", "setting": "[5]", "value": "inactive; negative"}, {"measurement": "mutagenic call", "setting": "Test System: AMES SALMONELLA TYPHIMURIUM, Strain/Indicator: TA1535, Metabolic Activation: RAT, LIVER, S-9, AROCLOR 1254 (10%), Method: PREINCUBATION", "value": "inactive; negative"}, {"measurement": "mutagenic call", "setting": "Test System: AMES SALMONELLA TYPHIMURIUM, Strain/Indicator: TA1537, Metabolic Activation: HAMSTER, LIVER, S-9, AROCLOR 1254 (10%), Method: PREINCUBATION", "value": "inactive; negative"}, {"measurement": "mutagenic call", "setting": "Test System: AMES SALMONELLA TYPHIMURIUM, Strain/Indicator: TA1537, Metabolic Activation: NONE, Method: PREINCUBATION", "value": "inactive; negative"}, {"measurement": "mutagenic call", "setting": "Test System: AMES SALMONELLA TYPHIMURIUM, Strain/Indicator: TA1537, Metabolic Activation: RAT, LIVER, S-9, AROCLOR 1254 (10%), Method: PREINCUBATION", "value": "inactive; negative"}]}
{"smiles": "O=C(/C=C/c1ccc(F)cc1)c1ccccc1", "values": [{"measurement": "mutagenic call", "setting": "Test System: AMES SALMONELLA TYPHIMURIUM, Strain/Indicator: TA98, Metabolic Activation: NONE, Method: STANDARD PLATE", "value": "inactive; negative"}, {"measurement": "mutagenic call", "setting": "Test System: AMES SALMONELLA TYPHIMURIUM, Strain/Indicator: TA98, Metabolic Activation: RAT, LIVER, S-9, AROCLOR 1254, Method: STANDARD PLATE", "value": "inactive; negative"}, {"measurement": "mutagenic call", "setting": "[3]", "value": "inactive; negative"}, {"measurement": "mutagenic call", "setting": "[4]", "value": "inactive; negative"}]}
{"smiles": "[Cl][Pb][Cl]", "values": [{"measurement": "mutagenic call", "setting": "End Point: IN VITRO MICRONUCLEUS, Test System: HAMSTER V79 CELLS, Metabolic Activation: NONE", "value": "active; positive (aneugenic above 1.1 um)"}, {"measurement": "mutagenic call", "setting": "Test System: CHINESE HAMSTER OVARY, Strain/Indicator: CHO-AS52/6-THIOGUANINE, Metabolic Activation: NONE", "value": "active; positive"}, {"measurement": "mutagenic call", "setting": "Test System: CHINESE HAMSTER V-79, Strain/Indicator: SP5 V-79 (HPRT)/6-THIOGUANINE, Metabolic Activation: NONE, Method: STANDARD PLATE", "value": "inactive; negative"}, {"measurement": "mutagenic call", "setting": "Test System: CHINESE HAMSTER V-79, Strain/Indicator: SPD8 V-79 (HPRT)/6-THIOGUANINE, Metabolic Activation: NONE, Method: STANDARD PLATE", "value": "inactive; negative"}]}
{"smiles": "CC(=O)OCN(C)N=O", "values": [{"measurement": "mutagenic call", "setting": "Test System: AMES SALMONELLA TYPHIMURIUM, Strain/Indicator: TA100, Metabolic Activation: HAMSTER, LIVER, CYTOSOL, Method: PREINCUBATION", "value": "active; positive"}, {"measurement": "mutagenic call", "setting": "Test System: AMES SALMONELLA TYPHIMURIUM, Strain/Indicator: TA100, Metabolic Activation: HAMSTER, LIVER, CYTOSOL, Method: STANDARD PLATE", "value": "active; positive"}, {"measurement": "mutagenic call", "setting": "Test System: AMES SALMONELLA TYPHIMURIUM, Strain/Indicator: TA104, Metabolic Activation: HAMSTER, LIVER, CYTOSOL, Method: PREINCUBATION", "value": "active; positive"}, {"measurement": "mutagenic call", "setting": "Test System: AMES SALMONELLA TYPHIMURIUM, Strain/Indicator: TA104, Metabolic Activation: HAMSTER, LIVER, CYTOSOL, Method: STANDARD PLATE", "value": "active; positive"}, {"measurement": "mutagenic call", "setting": "[5]", "value": "active; positive"}, {"measurement": "mutagenic call", "setting": "Test System: UDS RAT UROTHELIAL CELLS, Strain/Indicator: THY INCORP, Metabolic Activation: NONE", "value": "active; positive"}]}
